Only the 19 paired bases of each siRNA are shown; overhangs and chemistry are not given here.
These substances were tested against firefly luciferase (assay: five studies, different assays). Conditions: siRNA.
Also: test concentration or dose not given here.

Q: With “sense GACAAAUACGAUUUAUCUA / antisense UAGAUAAAUCGUAUUUGUC” as the substance, how does the target inhibition read?
A: 86.5%

Q: “sense ACGUCGCCAGUCAAGUAAC / antisense GUUACUUGACUGGCGACGU” was tested. Which target inhibition did it give?
A: 84.1%

Q: Which target inhibition does the source give for “sense GCCGCCGUUGUUGUUUUGG / antisense CCAAAACAACAACGGCGGC” here?
A: 13.8%

Q: With “sense CUUCCCGCCGCCGUUGUUG / antisense CAACAACGGCGGCGGGAAG” as the substance, how does the target inhibition read?
A: 47.2%

Q: “sense UCAAGUAACAACCGCGAAA / antisense UUUCGCGGUUGUUACUUGA” was tested. Which target inhibition did it give?
A: 88.5%

Q: “sense UGUUUGUGGACGAAGUACC / antisense GGUACUUCGUCCACAAACA” was tested. Which target inhibition did it give?
A: 35.9%

Q: “sense GAAGUCUCUGAUUAAGUAC / antisense GUACUUAAUCAGAGACUUC” was tested. Which target inhibition did it give?
A: 34.7%

Q: “sense GCAAGAAAAAUCAGAGAGA / antisense UCUCUCUGAUUUUUCUUGC” was tested. Which target inhibition did it give?
A: 95.1%

Q: How did the target inhibition turn out when “sense AGAUCCUCAUAAAGGCCAA / antisense UUGGCCUUUAUGAGGAUCU” was run?
A: 78.2%

Q: “sense AAAGACGAUGACGGAAAAA / antisense UUUUUCCGUCAUCGUCUUU” was tested. Which target inhibition did it give?
A: 73.9%

Q: How did the target inhibition turn out when “sense GGAUGGAUGGCUACAUUCU / antisense AGAAUGUAGCCAUCCAUCC” was run?
A: 97.4%

Q: For “sense ACGAUGACGGAAAAAGAGA / antisense UCUCUUUUUCCGUCAUCGU”, which target inhibition is on record?
A: 80.7%

Q: For “sense CCGUUGUUGUUUUGGAGCA / antisense UGCUCCAAAACAACAACGG”, which target inhibition is on record?
A: 89.3%

Q: Which target inhibition does the source give for “sense UGGAAGAUGGAACCGCUGG / antisense CCAGCGGUUCCAUCUUCCA” here?
A: 16.6%

Q: How did the target inhibition turn out when “sense AUCGUGGAUUACGUCGCCA / antisense UGGCGACGUAAUCCACGAU” was run?
A: 44.2%

Q: How did the target inhibition turn out when “sense GUCGCCAGUCAAGUAACAA / antisense UUGUUACUUGACUGGCGAC” was run?
A: 44.9%

Q: How did the target inhibition turn out when “sense GACGAAGUACCGAAAGGUC / antisense GACCUUUCGGUACUUCGUC” was run?
A: 89.7%

Q: How did the target inhibition turn out when “sense CCGGAUACUGCGAUUUUAA / antisense UUAAAAUCGCAGUAUCCGG” was run?
A: 96.3%

Q: For “sense AGAGAGAUCCUCAUAAAGG / antisense CCUUUAUGAGGAUCUCUCU”, which target inhibition is on record?
A: 92.6%

Q: For “sense GAUGACGGAAAAAGAGAUC / antisense GAUCUCUUUUUCCGUCAUC”, which target inhibition is on record?
A: 47.6%

Q: For “sense GACGCCAAAAACAUAAAGA / antisense UCUUUAUGUUUUUGGCGUC”, which target inhibition is on record?
A: 85.8%

Q: For “sense CGCCAGUCAAGUAACAACC / antisense GGUUGUUACUUGACUGGCG”, which target inhibition is on record?
A: 79.5%

Q: How did the target inhibition turn out when “sense UUGCGCGGAGGAGUUGUGU / antisense ACACAACUCCUCCGCGCAA” was run?
A: 24.9%

Q: Which target inhibition does the source give for “sense AAGUAACAACCGCGAAAAA / antisense UUUUUCGCGGUUGUUACUU” here?
A: 76.6%

Q: “sense AGACGAUGACGGAAAAAGA / antisense UCUUUUUCCGUCAUCGUCU” was tested. Which target inhibition did it give?
A: 93.1%

Q: With “sense AAAGGUCUUACCGGAAAAC / antisense GUUUUCCGGUAAGACCUUU” as the substance, how does the target inhibition read?
A: 71.1%

Q: For “sense UGUAAACAAUCCGGAAGCG / antisense CGCUUCCGGAUUGUUUACA”, which target inhibition is on record?
A: 9.91%

Q: How did the target inhibition turn out when “sense UCCGGAAGCGACCAACGCC / antisense GGCGUUGGUCGCUUCCGGA” was run?
A: 89.7%

Q: For “sense UGAACUUCCCGCCGCCGUU / antisense AACGGCGGCGGGAAGUUCA”, which target inhibition is on record?
A: 63.3%

Q: How did the target inhibition turn out when “sense UUUGGAGCACGGAAAGACG / antisense CGUCUUUCCGUGCUCCAAA” was run?
A: -10.4%

Q: Which target inhibition does the source give for “sense CAAAUACGAUUUAUCUAAU / antisense AUUAGAUAAAUCGUAUUUG” here?
A: 87.8%

Q: With “sense GGUGAACUUCCCGCCGCCG / antisense CGGCGGCGGGAAGUUCACC” as the substance, how does the target inhibition read?
A: 14.5%

Q: For “sense GAUGAUAAACCGGGCGCGG / antisense CCGCGCCCGGUUUAUCAUC”, which target inhibition is on record?
A: 52.9%

Q: Which target inhibition does the source give for “sense ACGUGCAAAAAAAGCUCCC / antisense GGGAGCUUUUUUUGCACGU” here?
A: 30%

Q: For “sense CGCGAAAAAGUUGCGCGGA / antisense UCCGCGCAACUUUUUCGCG”, which target inhibition is on record?
A: 32.1%

Q: For “sense AGAGAUCGUGGAUUACGUC / antisense GACGUAAUCCACGAUCUCU”, which target inhibition is on record?
A: 82.8%

Q: How did the target inhibition turn out when “sense GGAGGAGUUGUGUUUGUGG / antisense CCACAAACACAACUCCUCC” was run?
A: 93.2%

Q: For “sense CCUUCAGGAUUACAAGAUU / antisense AAUCUUGUAAUCCUGAAGG”, which target inhibition is on record?
A: 98.9%

Q: Which target inhibition does the source give for “sense GGUAAAGUUGUUCCAUUUU / antisense AAAAUGGAACAACUUUACC” here?
A: 94.5%

Q: How did the target inhibition turn out when “sense UGUGGACGAAGUACCGAAA / antisense UUUCGGUACUUCGUCCACA” was run?
A: 77.8%

Q: How did the target inhibition turn out when “sense CGAAAAAGUUGCGCGGAGG / antisense CCUCCGCGCAACUUUUUCG” was run?
A: 78.6%

Q: How did the target inhibition turn out when “sense AGGUCUUACCGGAAAACUC / antisense GAGUUUUCCGGUAAGACCU” was run?
A: 90.1%

Q: Which target inhibition does the source give for “sense AAAAAGAGAUCGUGGAUUA / antisense UAAUCCACGAUCUCUUUUU” here?
A: 91.2%

Q: How did the target inhibition turn out when “sense AGAGAUCCUCAUAAAGGCC / antisense GGCCUUUAUGAGGAUCUCU” was run?
A: 38.7%

Q: For “sense GUUUUGGAGCACGGAAAGA / antisense UCUUUCCGUGCUCCAAAAC”, which target inhibition is on record?
A: -27.8%

Q: With “sense AAAGAGAUCGUGGAUUACG / antisense CGUAAUCCACGAUCUCUUU” as the substance, how does the target inhibition read?
A: 47.4%

Q: How did the target inhibition turn out when “sense AACUCGACGCAAGAAAAAU / antisense AUUUUUCUUGCGUCGAGUU” was run?
A: 90.2%

Q: For “sense AGGAGUUGUGUUUGUGGAC / antisense GUCCACAAACACAACUCCU”, which target inhibition is on record?
A: 87.5%

Q: For “sense AUCCUCAUAAAGGCCAAGA / antisense UCUUGGCCUUUAUGAGGAU”, which target inhibition is on record?
A: -12.8%

Q: “sense GUCGCUCUGCCUCAUAGAA / antisense UUCUAUGAGGCAGAGCGAC” was tested. Which target inhibition did it give?
A: 69.9%

Q: With “sense ACGGAAAAAGAGAUCGUGG / antisense CCACGAUCUCUUUUUCCGU” as the substance, how does the target inhibition read?
A: 58.8%

Q: With “sense CCGCCGCCGUUGUUGUUUU / antisense AAAACAACAACGGCGGCGG” as the substance, how does the target inhibition read?
A: 60.8%

Q: For “sense AACUUCCCGCCGCCGUUGU / antisense ACAACGGCGGCGGGAAGUU”, which target inhibition is on record?
A: 18.4%

Q: With “sense GCGCGGAGGAGUUGUGUUU / antisense AAACACAACUCCUCCGCGC” as the substance, how does the target inhibition read?
A: 86.8%

Q: Which target inhibition does the source give for “sense CGAAGUACCGAAAGGUCUU / antisense AAGACCUUUCGGUACUUCG” here?
A: 93.1%

Q: “sense UGUUGUUUUGGAGCACGGA / antisense UCCGUGCUCCAAAACAACA” was tested. Which target inhibition did it give?
A: 82.5%

Q: How did the target inhibition turn out when “sense GUUGUGUUUGUGGACGAAG / antisense CUUCGUCCACAAACACAAC” was run?
A: 90.1%

Q: “sense GAAAAAUCAGAGAGAUCCU / antisense AGGAUCUCUCUGAUUUUUC” was tested. Which target inhibition did it give?
A: 86.8%

Q: Which target inhibition does the source give for “sense UCCCGCCGCCGUUGUUGUU / antisense AACAACAACGGCGGCGGGA” here?
A: 43.8%

Q: “sense AAGUACCGAAAGGUCUUAC / antisense GUAAGACCUUUCGGUACUU” was tested. Which target inhibition did it give?
A: 64.3%

Q: For “sense GGUUUUGGAAUGUUUACUA / antisense UAGUAAACAUUCCAAAACC”, which target inhibition is on record?
A: 93.3%

Q: With “sense CCUCCCGGUUUUAAUGAAU / antisense AUUCAUUAAAACCGGGAGG” as the substance, how does the target inhibition read?
A: 73.5%

Q: For “sense GGAAAAAGAGAUCGUGGAU / antisense AUCCACGAUCUCUUUUUCC”, which target inhibition is on record?
A: 91.3%

Q: “sense UGGACGAAGUACCGAAAGG / antisense CCUUUCGGUACUUCGUCCA” was tested. Which target inhibition did it give?
A: 70.3%

Q: With “sense GAUUACGUCGCCAGUCAAG / antisense CUUGACUGGCGACGUAAUC” as the substance, how does the target inhibition read?
A: 96%

Q: How did the target inhibition turn out when “sense UGGAGCACGGAAAGACGAU / antisense AUCGUCUUUCCGUGCUCCA” was run?
A: 52.2%

Q: “sense CCGGAAAACUCGACGCAAG / antisense CUUGCGUCGAGUUUUCCGG” was tested. Which target inhibition did it give?
A: 94.9%

Q: “sense AAGAAAAAUCAGAGAGAUC / antisense GAUCUCUCUGAUUUUUCUU” was tested. Which target inhibition did it give?
A: 68.1%

Q: With “sense CCGGUUAUGUAAACAAUCC / antisense GGAUUGUUUACAUAACCGG” as the substance, how does the target inhibition read?
A: 41.6%

Q: For “sense GAGUUGUGUUUGUGGACGA / antisense UCGUCCACAAACACAACUC”, which target inhibition is on record?
A: 95.3%

Q: With “sense CCCGCCGCCGUUGUUGUUU / antisense AAACAACAACGGCGGCGGG” as the substance, how does the target inhibition read?
A: 42.3%

Q: How did the target inhibition turn out when “sense CGAAAGGUCUUACCGGAAA / antisense UUUCCGGUAAGACCUUUCG” was run?
A: 95%

Q: How did the target inhibition turn out when “sense GUUGGCAGAAGCUAUGAAA / antisense UUUCAUAGCUUCUGCCAAC” was run?
A: 93.1%

Q: Which target inhibition does the source give for “sense GUACCGAAAGGUCUUACCG / antisense CGGUAAGACCUUUCGGUAC” here?
A: 80.4%

Q: For “sense GUGUUGGGCGCGUUAUUUA / antisense UAAAUAACGCGCCCAACAC”, which target inhibition is on record?
A: 91.9%

Q: For “sense UACUACACUCGGAUAUUUG / antisense CAAAUAUCCGAGUGUAGUA”, which target inhibition is on record?
A: 38.6%

Q: “sense GUAACAACCGCGAAAAAGU / antisense ACUUUUUCGCGGUUGUUAC” was tested. Which target inhibition did it give?
A: 85.5%

Q: Which target inhibition does the source give for “sense GAUUAUGUCCGGUUAUGUA / antisense UACAUAACCGGACAUAAUC” here?
A: 96.8%

Q: How did the target inhibition turn out when “sense UAUGCCGGUGUUGGGCGCG / antisense CGCGCCCAACACCGGCAUA” was run?
A: 19.7%

Q: “sense UUCUGAUUACACCCGAGGG / antisense CCCUCGGGUGUAAUCAGAA” was tested. Which target inhibition did it give?
A: 10.7%

Q: How did the target inhibition turn out when “sense GAUAUGGGCUGAAUACAAA / antisense UUUGUAUUCAGCCCAUAUC” was run?
A: 91.9%

Q: For “sense GCCUGAAGUCUCUGAUUAA / antisense UUAAUCAGAGACUUCAGGC”, which target inhibition is on record?
A: 95.6%

Q: For “sense UCAGAGAGAUCCUCAUAAA / antisense UUUAUGAGGAUCUCUCUGA”, which target inhibition is on record?
A: 92.1%

Q: With “sense CCAAUCAUCCAAAAAAUUA / antisense UAAUUUUUUGGAUGAUUGG” as the substance, how does the target inhibition read?
A: 97.5%

Q: With “sense GAUUUCGAGUCGUCUUAAU / antisense AUUAAGACGACUCGAAAUC” as the substance, how does the target inhibition read?
A: 98.9%

Q: “sense AACAUAAAGAAAGGCCCGG / antisense CCGGGCCUUUCUUUAUGUU” was tested. Which target inhibition did it give?
A: 7.6%

Q: Which target inhibition does the source give for “sense AUUAUCAUGGAUUCUAAAA / antisense UUUUAGAAUCCAUGAUAAU” here?
A: 55.5%

Q: How did the target inhibition turn out when “sense UGGAUUACGUCGCCAGUCA / antisense UGACUGGCGACGUAAUCCA” was run?
A: 93.6%

Q: With “sense CGGCGCCAUUCUAUCCGCU / antisense AGCGGAUAGAAUGGCGCCG” as the substance, how does the target inhibition read?
A: 53.8%
